The source of these data is ChEMBL document CHEMBL5543155, “Design, Synthesis, and Biological Evaluation of β-Trifluoroethoxydimethyl Selenides as Potent Antiosteoporosis Agents” (J Med Chem, 2024).

For data set [1], the system named is BMMC. Briefly: Anti-osteoclastogenesis activity in M-CSF/RANKL-induced C57BL/6 mouse BMMC cells assessed as prevention of osteoclasts precursor differentiation at 5 uM measured on day 1 to 3 by TRAP-staining based light microscopic analysis. The format is functional, cell-based. The note with it: time 1-3 day.
The test system of data set [2] is Mus musculus. Nature of the data set: Anti-osteoporosis activity in ovariectomized C57BL/6 mouse assessed as reduction in bone loss by measuring increase in trabecular thickness at 10 mg/kg, ip administered every other day for 8 weeks by micro-CT analysis. The format is functional, organism-based.
Data set [3] relates to BMMC. Nature of the data set: Effect on total p65 protein expression in RANKL-induced C57BL/6 mouse BMMC cells at 5 uM pretreated for 6 hrs followed by RANKL stimulation and measured upto 60 mins by Western blot analysis. The format is functional, cell-based. The note with it: time <= 7.0 hrs. A general note: Immunoblotting shows a protein as a band on a membrane.
Data set [4] is described as follows: Toxicity in OVX osteoporotic C57BL/6 mouse assessed as effect on size and surface gloss of heart at 10 mg/kg, ip administered every other day for 8 weeks by H and E staining based analysis. It counts as organism-based. The note with it: in vivo, 1344 h.
Data set [5] has as its system BMMC. Nature of the data set: Anti-osteoclastogenesis activity in M-CSF/RANKL-induced C57BL/6 mouse BMMC cells assessed as reduction in number of TRAP-positive osteoclasts at 0 to 10 uM incubated for 6 days with media replacement for every 2 days by TRAP-staining based light microscopic analysis. The format is functional, cell-based. The note with it: dose 0-10 µM, time 6.0 day.

The subject of data set [6] is BMMC. Nature of the data set: Anti-osteoclastogenesis activity in M-CSF/RANKL-induced C57BL/6 mouse BMMC cells assessed as downregulation of DC-STAMP gene expression incubated for 5 days by qRT-PCR analysis. The format is functional, cell-based. The following applies: dose 0-10 µM, time 5.0 day. (Real-time PCR tracks product formation cycle by cycle.)
The target in data set [7] is T1, Tumor necrosis factor ligand superfamily member 11 (Mus musculus, UniProt O35235).
T1 sequence (O35235 whole entry): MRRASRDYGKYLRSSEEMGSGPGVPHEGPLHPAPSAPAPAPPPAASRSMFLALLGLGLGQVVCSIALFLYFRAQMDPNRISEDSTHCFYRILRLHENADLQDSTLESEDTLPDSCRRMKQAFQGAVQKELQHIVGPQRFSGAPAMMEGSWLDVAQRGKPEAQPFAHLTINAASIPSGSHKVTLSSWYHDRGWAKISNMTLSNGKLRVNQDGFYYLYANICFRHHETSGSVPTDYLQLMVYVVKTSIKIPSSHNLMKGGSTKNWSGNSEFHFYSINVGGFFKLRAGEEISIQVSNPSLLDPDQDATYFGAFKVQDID
Nature of the data set: Binding affinity to mouse RANKL assessed as dissociation constant by SPR analysis.

For data set [8], the system named is BMMC. Nature of the data set: Anti-osteoclastogenesis activity in M-CSF/RANKL-induced C57BL/6 mouse BMMC cells cultured in hydroxyapatite-coated plates assessed as reduction in bone resorbed area per osteoclast incubated for 4 days by microscopic analysis. The note with it: dose 2.5-10 µM, time 4.0 day. The format is functional, cell-based.
Data set [9] relates to MC3T3-E1. Nature of the data set: Induction of osteoblast differentiation in mouse MC3T3-E1 cells assessed as bone formation by measuring increase in calcium deposition measured after 21 days by Alizarin red S staining based inverted microscopic analysis. The format is functional, cell-based. The note with it: dose 2.5-10 µM, time 21.0 day.
Data set [10] relates to RAW264.7. Nature of the data set: Inhibition of RANKL-induced osteoclast differentiation in mouse RAW264.7 cells at 5 uM incubated for 4 days with media replacement for every 2 days by TRAP-staining based light microscopic analysis. The format is functional, cell-based. The note with it: time 4.0 day.
The target of data set [11] is T2, NF-kappa-B inhibitor alpha (Mus musculus) (UniProt Q9Z1E3).
T2 sequence (whole entry): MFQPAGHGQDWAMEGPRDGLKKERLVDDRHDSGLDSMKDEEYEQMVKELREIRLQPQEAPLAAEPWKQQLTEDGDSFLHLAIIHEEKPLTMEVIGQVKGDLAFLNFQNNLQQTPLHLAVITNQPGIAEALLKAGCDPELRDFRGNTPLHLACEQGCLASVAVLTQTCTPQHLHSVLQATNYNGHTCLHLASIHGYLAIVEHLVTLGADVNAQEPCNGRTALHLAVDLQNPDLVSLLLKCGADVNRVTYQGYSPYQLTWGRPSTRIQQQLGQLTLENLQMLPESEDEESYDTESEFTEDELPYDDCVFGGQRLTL
Nature of the data set: Inhibition of RANKL-induced IkappaBalpha phosphorylation in C57BL/6 mouse BMMC cells at 5 uM pretreated for 6 hrs followed by RANKL stimulation and measured upto 60 mins by Western blot analysis. The format is cell-based. The following applies: time <= 7.0 hrs.

For data set [12], the system named is BMMC. Briefly: Effect on total ERK protein expression in RANKL-induced C57BL/6 mouse BMMC cells at 5 uM pretreated for 6 hrs followed by RANKL stimulation and measured upto 60 mins by Western blot analysis. The note with it: time <= 7.0 hrs. It counts as functional, cell-based.
For data set [13], the system named is BMMC. Briefly: Inhibition of ERK phosphorylation in RANKL-induced C57BL/6 mouse BMMC cells at 5 uM pretreated for 6 hrs followed by RANKL stimulation and measured upto 60 mins by Western blot analysis. The format is cell-based. The note with it: time <= 7.0 hrs.
For data set [14], the target named is T2, NF-kappa-B inhibitor alpha (Mus musculus). Briefly: Inhibition of RANKL-induced IkappaBalpha degradation in C57BL/6 mouse BMMC cells at 5 uM pretreated for 6 hrs followed by RANKL stimulation and measured upto 60 mins by Western blot analysis. It counts as cell-based. The following applies: time <= 7.0 hrs.
Data set [15] relates to MC3T3-E1. Briefly: Induction of osteoblast differentiation in mouse MC3T3-E1 cells assessed as bone formation by measuring increase in BMP2 protein expression measured after 7 days by Western blot analysis. The following applies: dose 2.5-10 µM, time 7.0 day. It counts as functional, cell-based.
The nature of data set [16]: Toxicity in OVX osteoporotic C57BL/6 mouse assessed as effect on size and surface gloss of lung at 10 mg/kg, ip administered every other day for 8 weeks by H and E staining based analysis. The format is organism-based. The note with it: in vivo, 1344 h.
Data set [17] has as its system Mus musculus. Nature of the data set: Anti-osteoporosis activity in ovariectomized C57BL/6 mouse assessed as reduction in bone loss by measuring decrease in trabecular spacing at 10 mg/kg, ip administered every other day for 8 weeks by micro-CT analysis. The format is functional, organism-based.
Data set [18] has as its target T3, Tumor necrosis factor ligand superfamily member 11 (Mus musculus) (UniProt O35235).
T3 sequence (whole entry): T1 sequence (O35235 whole entry)
Briefly: Binding affinity to mouse RANKL assessed as increase in resonance units measured upto 240 mins by SPR analysis. The following applies: dose 15.63-500 µM.

Data set [19] deals with RAW264.7. Briefly: Cytotoxicity against mouse RAW264.7 cells assessed as cell destruction at 5 uM incubated for 48 hrs by MTT assay. The format is toxicity, cell-based. The following applies: raw264.7, 48 h. For orientation: Formazan colour is commonly taken as a measure of viable cells.
The target of data set [20] is Transcription factor p65 (Mus musculus) (UniProt Q04207). Nature of the data set: Inhibition of p65 phosphorylation in RANKL-induced C57BL/6 mouse BMMC cells at 5 uM pretreated for 6 hrs followed by RANKL stimulation and measured upto 60 mins by Western blot analysis. It counts as cell-based. The note with it: time <= 7.0 hrs.
Transcription factor p65 (Mus musculus), sequence (Q04207 whole entry): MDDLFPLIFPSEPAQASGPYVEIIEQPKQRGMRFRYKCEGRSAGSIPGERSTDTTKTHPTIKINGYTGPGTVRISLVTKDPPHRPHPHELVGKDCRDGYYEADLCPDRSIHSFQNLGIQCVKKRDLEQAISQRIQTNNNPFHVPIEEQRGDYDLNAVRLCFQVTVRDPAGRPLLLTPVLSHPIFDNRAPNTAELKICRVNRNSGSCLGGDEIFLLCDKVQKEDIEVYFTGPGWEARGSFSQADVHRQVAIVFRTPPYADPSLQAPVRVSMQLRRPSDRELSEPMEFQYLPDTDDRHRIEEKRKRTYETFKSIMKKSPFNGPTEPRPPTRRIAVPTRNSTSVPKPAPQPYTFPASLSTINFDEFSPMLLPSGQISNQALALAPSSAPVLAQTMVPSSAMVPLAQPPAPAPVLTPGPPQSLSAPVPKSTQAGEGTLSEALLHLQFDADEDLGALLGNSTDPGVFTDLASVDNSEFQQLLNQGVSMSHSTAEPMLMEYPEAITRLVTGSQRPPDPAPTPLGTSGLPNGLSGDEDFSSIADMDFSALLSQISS
Data set [21] is described as follows: Toxicity in OVX osteoporotic C57BL/6 mouse assessed as effect on size and surface gloss of kidney at 10 mg/kg, ip administered every other day for 8 weeks by H and E staining based analysis. It counts as organism-based. The following applies: in vivo, 1344 h.
Data set [22] relates to Mus musculus. Nature of the data set: Anti-osteoporosis activity in ovariectomized C57BL/6 mouse assessed as reduction in bone loss by measuring increase in trabecular number at 10 mg/kg, ip administered every other day for 8 weeks by micro-CT analysis. It counts as functional, organism-based.
Data set [23] has as its system BMMC. Briefly: Anti-osteoclastogenesis activity in M-CSF/RANKL-induced C57BL/6 mouse BMMC cells assessed as inhibition of osteoclasts formation incubated for 6 days with media replacement for every 2 days by TRAP-staining based light microscopic analysis. The format is functional, cell-based.

Active and inactive are the calls of the source. The rule behind the calls is not given here.

What is called Kd is the constant that tells how readily two partners part at equilibrium. In general, IC50 refers to the concentration that gives 50% inhibition. As to `CC(C)(OCC(F)(F)F)C([Se]c1ccccc1)C(=O)Nc1ccncc1` (centres undefined), the result in data set [1], in [2], in data set [5], in [17], in data set [18] and in data set [22] was Active. Also, the result in [3] and in data set [12] was inactive. Also, the Activity result in [4] was “Non-Toxic”; in data set [6], “Dose-Dependent Effect”; in data set [8], “Dose-Dependent Effect”; in data set [9], “Dose-Dependent Effect”; in data set [15] it was “Dose-Dependent Effect”; in data set [16], “Non-Toxic”. Further, the Activity result is “Non-Toxic” in data set [19]; “Non-Toxic” in data set [21]; “Dose-Dependent Effect” in [23] (dose 0-10 µM, time 6.0 day). In addition, the Kd in [7] was found to be 268 µM. Besides, the inhibition entry in data set [10], in data set [11], in data set [13], in data set [14] and in data set [20] was “Active” each time. Also, the IC50 in [23] (C57BL/6, BMMC) is 2.41 µM.
